Data on one compound can be found in PMC7403980, “Anti-Inflammatory Effects of the Novel PIM Kinase Inhibitor KMU-470 in RAW 264.7 Cells through the TLR4-NF-κB-NLRP3 Pathway” (International Journal of Molecular Sciences, 2020).

The target of assay [1] is T1, PIM-1 (Homo sapiens, UniProt P11309).
T1 construct: purchased Life Technologies (Carlsbad, CA, USA)
Briefly: PIM kinase IMAP fluorescence polarization IC50 determination. Format: biochemical. As to conditions: ATP 30 μM; average of two independent experiments; read-out: Inhibitory Activity IC50 PIM-1. How it is done:
(§1) The recombinant PIM kinase, human 5-FAM-labelled Bad peptide substrate, and ATP were prepared in a reaction buffer containing 10 mM HEPES (pH 7.2), 10 mM MgCl2, 0.05% NaN3, 0.01% Triton X-100, and 2 mM DTT. […] Reagents were added to the plate as follows: 2.5 μL compound, 2.5 μL PIM kinase, 2.5 μL ATP, and 2.5 μL 5-FAM-labelled Bad peptide substrate (a final concentration of 100 nM). The final concentrations of ATP in the kinase reactions were 30 μM, 5 μM, and 20 μM for PIM1, PIM2, and PIM3, respectively. […] Kinase reactions were incubated at room temperature for 90 min, and then the reactions were stopped by the addition of 20 μL of IMAP binding reagent (solution containing 75% Buffer A: 25% Buffer B, and a 1 in 600 dilution of beads). After quenching, the plates were incubated at room temperature for 2 h, and then the fluorescence polarization measurements were carried out on an Infinity F200 (Tecan, Männedorf, Zürich, Switzerland). The percentage of inhibition was calculated for each compound concentration and the data were fitted to the equation of a 4-parameter logistic curve. IC50 values were obtained using GraphPad Prism (GraphPad Software, Inc., La Jolla, CA, USA).

In assay [2] the target is T2, PIM-2 (Homo sapiens, UniProt Q9P1W9).
T2 construct: purchased Abcam (Cambridge, UK)
Described as above. Format: biochemical. As to conditions: ATP 5 μM; average of two independent experiments; read-out: Inhibitory Activity IC50 PIM-2. How it is done: as §1

The target in assay [3] is T3, PIM-3 (Homo sapiens, UniProt Q86V86).
T3 construct: purchased Millipore (Burlington, MA, USA)
The assay is described as above. As to conditions: ATP 20 μM; average of two independent experiments; read-out: Inhibitory Activity IC50 PIM-3. It counts as biochemical. The method, then:
as §1

Assay [4] concerns IL-1β mRNA. Briefly: LPS-induced IL-1β mRNA expression in RAW 264.7 cells (RT-PCR). It counts as cell-based, murine. As to conditions: LPS 50 ng/mL 6 h.
Protocol: Total RNA was isolated, and used to measure the mRNA expression levels of IL-1b and β-actin by RT-PCR analysis. *** p < 0.001, ** p < 0.01. […] (A-C) Cells were treated with KMU-470 for 30 min and stimulated with LPS 50 ng/mL for 6 h. The levels of IL-1β, TNF-α, and IL-6 were determined using real time PCR. *** p < 0.001, *p < 0.05. (D) Cells were pre-treated with 0.1, 0.5, and 1 μM of KMU-470 for 30 min and treated with LPS 50 ng/mL for 6 h, respectively. […] (E) Cells were pre-treated with 0.1, 0.5, and 1 μM of KMU-470 for 30 min and treated with LPS 50 ng/mL for 6 h, respectively. […] Total RNA was isolated using TriZol reagent (Life Technologies; Gaithersburg, MD, USA) according to the manufacturer's protocol. Total RNA absorbance was quantified by using Nanodrop 1000 (Thermo Fisher Scientific, Waltham, MA, USA). […] Real time quantitative PCR was performed by using the SYBR green premix (Roche Diagnostics, Mannheim, Germany) on the LightCycler 480 PCR (system Roche Diagnostics, Mannheim, Germany). The following primer sequences were used: L32 (Housekeeping gene): forward [NT], reverse [NT]-1β; forward [NT], reverse [NT]-α; forward [NT], reverse [NT]-6; forward [NT], reverse [NT].
In assay [5] the test system is p38. Briefly: LPS-induced phosphorylation of p38 in RAW 264.7 cells (Western blot). It counts as cell-based, murine. As to conditions: KMU-470 1 μM 24 h pre-treatment, LPS 50 ng/mL. How it is done: Figure 5 Effect of KMU-470 on LPS-induced phosphorylation of MAPKs/ IKKs/ NF-κB in RAW 264.7 cells. (A) Cells were pre-treated with 1μM of KMU-470 for 24 h and stimulated with LPS (50 ng/mL) at the indicated times. (C) Cells were pre-treated with 0.5 and 1μM of KMU-470 for 30 min prior to LPS treatment. Total proteins were isolated after 6 h exposure to LPS (50 ng/mL). The protein expression level of MAPKs, p-IKKα/β, and p-NF-κB were assessed using Western blot analyses. (B,D) The relative optical densities of MAPKs, p-IKKα/β, and p-NF-κB bands were analyzed by the Image-J program. *** p < 0.001.
RAW 264.7 cells were pre-treated with KMU-470 (0.5–1 μM/mL) for 24 h and stimulated with LPS (50 ng/mL) for 6 h. After stimulation, total cells were harvested, washed with PBS buffer, and then the total protein was extracted with a RIPA buffer (0.1 mM sodium orthovanadate, 137 mM NaCl, 15 mM EGTA, 0.1% Triton X-100, 25 mM MOPS, 15 mM MgCl2, 100 μM phenylmethylsulfonyl fluoride, and 20 μM leupeptin, adjusted to pH 7.2). […] Immunoreactive proteins were detected using the ELC Western blot detection system kit (Millipore). Signal intensity was measured using the Chemi Image documentation system (Fusion Fx7, VILBER LOUTMAT). Protein expression levels were quantified using the Image J program.
On the technique in general: Immunoblotting shows a protein as a band on a membrane.

Assay [6] has as its system NLRP3. Briefly: LPS-induced NLRP3 protein expression in RAW 264.7 cells (Western blot). The settings on record: KMU-470 0.1, 0.5, 1 μM 30 min, LPS 50 ng/mL 6 h. Format: cell-based, murine. The method, then:
(§2) Figure 6 Inhibitory effect of KMU-470 on LPS-induced up-regulation of pro-inflammatory cytokines and activation of NLRP3 inflammasome in RAW 264.7 cells. (A–C) Cells were treated with KMU-470 for 30 min and stimulated with LPS 50 ng/mL for 6 h. The levels of IL-1β, TNF-α, and IL-6 were determined using real time PCR. *** p < 0.001, *p < 0.05. (D) Cells were pre-treated with 0.1, 0.5, and 1 μM of KMU-470 for 30 min and treated with LPS 50 ng/mL for 6 h, respectively. Whole cell lysates were isolated and used to measure the protein expression levels of pro-IL-1β and β-actin by Western blot analysis. (E) Cells were pre-treated with 0.1, 0.5, and 1 μM of KMU-470 for 30 min and treated with LPS 50 ng/mL for 6 h, respectively. Whole cell lysates were isolated and used to measure the protein expression levels of […], ASC, pro-caspase-1, pro-IL-1β, and β-actin by Western blot analysis.
(§3) RAW 264.7 cells were pre-treated with KMU-470 (0.5–1 μM/mL) for 24 h and stimulated with LPS (50 ng/mL) for 6 h. […] Immunoreactive proteins were detected using the ELC Western blot detection system kit (Millipore). Signal intensity was measured using the Chemi Image documentation system (Fusion Fx7, VILBER LOUTMAT). Protein expression levels were quantified using the Image J program.

Assay [7] has as its system pro-caspase-1. The experiment in a line: Pro-caspase-1 protein expression in LPS-treated RAW 264.7 cells (Western blot). The settings on record: KMU-470 0.1, 0.5, 1 μM 30 min, LPS 50 ng/mL 6 h. Format: cell-based, murine. The method, then: as §2, §3
In assay [8] the test system is IL-6. Briefly: LPS-induced IL-6 mRNA in RAW 264.7 cells (real time PCR). It counts as cell-based, murine. The settings on record: KMU-470 30 min, LPS 50 ng/mL 6 h. How it is done: as §2
Total RNA was isolated using TriZol reagent (Life Technologies; Gaithersburg, MD, USA) according to the manufacturer’s protocol. Total RNA absorbance was quantified by using Nanodrop 1000 (Thermo Fisher Scientific, Waltham, MA, USA). […] Real time quantitative PCR was performed by using the SYBR green premix (Roche Diagnostics, Mannheim, Germany) on the LightCycler 480 PCR (system Roche Diagnostics, Mannheim, Germany). […]
On the technique in general: Real-time PCR tracks product formation cycle by cycle.

As usually defined, the IC50 is the concentration that gives 50% inhibition.

T2 sequence (Q9P1W9 whole entry, species assumed): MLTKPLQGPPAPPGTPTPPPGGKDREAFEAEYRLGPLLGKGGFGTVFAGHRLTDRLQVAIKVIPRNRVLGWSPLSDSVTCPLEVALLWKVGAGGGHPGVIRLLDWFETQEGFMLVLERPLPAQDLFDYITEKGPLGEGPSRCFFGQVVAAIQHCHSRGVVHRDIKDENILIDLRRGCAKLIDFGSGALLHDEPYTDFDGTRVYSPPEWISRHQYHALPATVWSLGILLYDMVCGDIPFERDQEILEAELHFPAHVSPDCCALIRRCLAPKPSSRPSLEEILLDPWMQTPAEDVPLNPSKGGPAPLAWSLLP
T1 sequence (P11309 whole entry, species assumed): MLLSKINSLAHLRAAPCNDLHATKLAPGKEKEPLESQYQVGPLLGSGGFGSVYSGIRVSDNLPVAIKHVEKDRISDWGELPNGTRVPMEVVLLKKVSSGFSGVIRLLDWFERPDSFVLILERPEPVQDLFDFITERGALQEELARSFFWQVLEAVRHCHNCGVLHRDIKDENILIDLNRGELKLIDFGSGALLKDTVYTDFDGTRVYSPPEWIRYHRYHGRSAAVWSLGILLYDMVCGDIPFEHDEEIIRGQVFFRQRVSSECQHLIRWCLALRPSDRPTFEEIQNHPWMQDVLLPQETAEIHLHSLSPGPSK

With `CN(C)CCNc1cncc(-c2ccc3c(c2)/C(=C/c2cnc[nH]2)C(=O)N3)n1` [KMU-470, (Z)-3-((1H-Imidazol-5-yl)methylene)-5-(6-((2-(dimethylamino)ethyl)amino)pyrazin-2-yl)indolin-2-one], the figures for the IC50 in assay [1], in assay [2] and in assay [3] were 5.6 nM, 220 nM and 6.9 nM, respectively. For the same compound, the “LPS-induced up-regulation of IL-1β mRNA expression” value in assay [4] (1 µM compound, pre-treatment 1 h, RT-PCR (Figure 2B)) is “significantly inhibited”. Besides, the “LPS-induced up-regulation of IL-1β (mRNA)” value in assay [4] (KMU-470 30 min, real time PCR (Figure 6A)) was “significantly decreased”. The p38 phosphorylation level entry in assay [5] is “no change”. Further, the “Expression of NLRP3 protein compared with LPS alone group” value in assay [6] is “marked decrease”. Besides, in assay [7], the Pro-caspase-1 expression result is on record as “not changed”. For the same compound, the “LPS-induced up-regulation of IL-6 (mRNA)” value in assay [8] was “significantly decreased”.
